Test results: ChEMBL document CHEMBL5465560, “Selectivity Literature for EUbOPEN Chemogenomic Library” (2024)
Each block holds one compound with its values, some of them ahead of it.

Tests used:
[1] = biological target: Serine/threonine-protein kinase PAK 3 (Homo sapiens) (UniProt O75914); assay: Selectivity interaction (KinomeScan (DiscoverX)) EUB0001079a PAK3; details: at 1 µM
[2] = biological target: T1, Serine/threonine-protein kinase 17B (Homo sapiens) (UniProt O94768); assay: Selectivity interaction (KinomeScan (DiscoverX)) EUB0000618a STK17B; details: at 10 µM
T1 sequence (whole entry): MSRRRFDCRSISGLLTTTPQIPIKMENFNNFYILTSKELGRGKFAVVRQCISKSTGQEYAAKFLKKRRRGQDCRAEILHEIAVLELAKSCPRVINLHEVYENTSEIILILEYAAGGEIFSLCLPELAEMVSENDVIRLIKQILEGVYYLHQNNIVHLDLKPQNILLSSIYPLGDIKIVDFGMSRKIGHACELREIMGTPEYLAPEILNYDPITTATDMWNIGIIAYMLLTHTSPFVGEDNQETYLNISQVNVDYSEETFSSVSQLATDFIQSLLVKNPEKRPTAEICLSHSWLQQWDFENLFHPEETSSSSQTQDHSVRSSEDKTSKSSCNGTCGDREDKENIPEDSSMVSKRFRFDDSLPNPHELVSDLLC

[3] = biological target: Tyrosine-protein kinase Fgr (Homo sapiens) (UniProt P09769); assay: Selectivity interaction (SelectScreen profiling (Invitrogen)) EUB0000607a FGR; details: at 2 µM
Chain of Tyrosine-protein kinase Fgr (Homo sapiens) (P09769 2-529 limits assumed): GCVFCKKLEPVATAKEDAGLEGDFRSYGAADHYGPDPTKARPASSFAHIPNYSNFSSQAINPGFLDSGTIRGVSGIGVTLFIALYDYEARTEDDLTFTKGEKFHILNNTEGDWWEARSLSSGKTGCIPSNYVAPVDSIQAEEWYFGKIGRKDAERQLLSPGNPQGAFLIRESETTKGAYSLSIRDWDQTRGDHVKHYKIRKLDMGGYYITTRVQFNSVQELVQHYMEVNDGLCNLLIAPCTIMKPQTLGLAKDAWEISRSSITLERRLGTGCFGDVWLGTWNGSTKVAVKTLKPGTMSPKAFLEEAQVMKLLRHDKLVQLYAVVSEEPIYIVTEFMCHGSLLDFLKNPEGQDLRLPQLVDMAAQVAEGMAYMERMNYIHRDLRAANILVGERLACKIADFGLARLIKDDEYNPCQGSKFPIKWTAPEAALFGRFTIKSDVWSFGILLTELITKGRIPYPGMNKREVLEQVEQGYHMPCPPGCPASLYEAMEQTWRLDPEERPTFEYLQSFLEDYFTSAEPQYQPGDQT

[4] = biological target: T2, Ephrin type-B receptor 1 (Homo sapiens) (UniProt P54762); assay: Selectivity interaction (KinomeScan (DiscoverX)) EUB0000607a EPHB1; details: at 10 µM
T2 sequence (whole entry): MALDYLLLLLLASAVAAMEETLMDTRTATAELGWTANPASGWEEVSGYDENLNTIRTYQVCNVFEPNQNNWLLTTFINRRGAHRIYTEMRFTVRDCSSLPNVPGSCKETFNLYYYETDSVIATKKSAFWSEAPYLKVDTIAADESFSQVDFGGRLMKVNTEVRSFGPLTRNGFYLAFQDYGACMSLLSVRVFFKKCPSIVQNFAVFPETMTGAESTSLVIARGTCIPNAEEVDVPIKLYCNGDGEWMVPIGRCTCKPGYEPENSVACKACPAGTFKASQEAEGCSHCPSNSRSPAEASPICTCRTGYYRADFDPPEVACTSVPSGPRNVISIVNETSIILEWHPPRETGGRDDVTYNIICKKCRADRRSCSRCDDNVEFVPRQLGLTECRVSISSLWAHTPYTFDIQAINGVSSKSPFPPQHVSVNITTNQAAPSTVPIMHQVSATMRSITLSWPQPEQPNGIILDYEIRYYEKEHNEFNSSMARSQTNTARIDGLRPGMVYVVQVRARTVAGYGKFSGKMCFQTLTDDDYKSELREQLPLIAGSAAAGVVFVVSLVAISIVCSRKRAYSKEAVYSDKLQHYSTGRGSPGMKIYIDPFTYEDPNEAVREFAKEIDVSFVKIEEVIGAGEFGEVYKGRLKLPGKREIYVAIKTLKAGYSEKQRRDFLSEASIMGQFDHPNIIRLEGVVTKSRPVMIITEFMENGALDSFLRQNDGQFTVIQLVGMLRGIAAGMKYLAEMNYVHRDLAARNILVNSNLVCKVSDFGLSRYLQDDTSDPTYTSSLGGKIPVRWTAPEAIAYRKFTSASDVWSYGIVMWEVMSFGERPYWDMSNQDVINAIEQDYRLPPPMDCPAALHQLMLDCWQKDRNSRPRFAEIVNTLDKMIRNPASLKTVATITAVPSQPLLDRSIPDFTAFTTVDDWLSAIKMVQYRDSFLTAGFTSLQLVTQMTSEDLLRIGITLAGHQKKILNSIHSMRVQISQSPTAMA

[5] = biological target: Rho-associated protein kinase 1 (Homo sapiens) (UniProt Q13464); assay: Selectivity interaction (Upstate Kinase Profiler service (Millipore)) EUB0000056c ROCK1; details: at 1 µM
Chain of Rho-associated protein kinase 1 (Homo sapiens) (Q13464 2-1354 limits assumed): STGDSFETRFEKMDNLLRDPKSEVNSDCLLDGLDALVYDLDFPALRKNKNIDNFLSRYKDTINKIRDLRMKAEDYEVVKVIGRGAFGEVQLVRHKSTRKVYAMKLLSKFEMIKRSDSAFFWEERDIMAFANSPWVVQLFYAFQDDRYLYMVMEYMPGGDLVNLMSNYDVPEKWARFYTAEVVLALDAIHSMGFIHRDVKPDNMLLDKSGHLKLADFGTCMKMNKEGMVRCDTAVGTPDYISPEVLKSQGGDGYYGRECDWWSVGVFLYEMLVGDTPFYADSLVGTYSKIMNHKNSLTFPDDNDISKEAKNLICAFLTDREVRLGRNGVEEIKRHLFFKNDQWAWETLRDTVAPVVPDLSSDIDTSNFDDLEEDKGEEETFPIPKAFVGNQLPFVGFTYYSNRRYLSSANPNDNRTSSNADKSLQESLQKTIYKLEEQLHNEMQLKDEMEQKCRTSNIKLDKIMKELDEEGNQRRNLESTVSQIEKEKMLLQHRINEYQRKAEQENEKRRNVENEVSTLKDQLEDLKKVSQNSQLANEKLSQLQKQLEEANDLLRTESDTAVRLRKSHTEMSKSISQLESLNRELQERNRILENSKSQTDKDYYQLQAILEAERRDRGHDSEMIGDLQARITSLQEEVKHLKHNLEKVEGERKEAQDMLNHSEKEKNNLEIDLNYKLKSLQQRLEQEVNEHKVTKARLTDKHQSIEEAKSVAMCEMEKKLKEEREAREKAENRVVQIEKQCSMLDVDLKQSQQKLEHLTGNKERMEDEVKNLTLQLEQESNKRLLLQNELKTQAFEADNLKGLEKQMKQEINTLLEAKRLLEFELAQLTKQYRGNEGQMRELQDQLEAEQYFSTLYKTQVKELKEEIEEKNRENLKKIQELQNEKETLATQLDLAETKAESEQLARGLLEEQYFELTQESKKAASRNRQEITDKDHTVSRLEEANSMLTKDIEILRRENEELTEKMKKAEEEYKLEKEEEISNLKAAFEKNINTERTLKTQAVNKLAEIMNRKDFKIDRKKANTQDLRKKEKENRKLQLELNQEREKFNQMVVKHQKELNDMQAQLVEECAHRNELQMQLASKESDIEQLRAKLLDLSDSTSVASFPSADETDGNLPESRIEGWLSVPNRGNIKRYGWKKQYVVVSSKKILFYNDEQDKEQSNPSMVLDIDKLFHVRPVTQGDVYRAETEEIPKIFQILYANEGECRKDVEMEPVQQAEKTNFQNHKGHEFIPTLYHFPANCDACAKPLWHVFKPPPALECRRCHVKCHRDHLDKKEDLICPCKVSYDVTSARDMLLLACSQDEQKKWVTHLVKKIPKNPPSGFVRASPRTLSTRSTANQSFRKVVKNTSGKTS

[6] = biological target: Dual specificity protein kinase CLK2 (Homo sapiens, UniProt P49760); details: at 10 µM
Chain of Dual specificity protein kinase CLK2 (P49760 whole entry, looked up): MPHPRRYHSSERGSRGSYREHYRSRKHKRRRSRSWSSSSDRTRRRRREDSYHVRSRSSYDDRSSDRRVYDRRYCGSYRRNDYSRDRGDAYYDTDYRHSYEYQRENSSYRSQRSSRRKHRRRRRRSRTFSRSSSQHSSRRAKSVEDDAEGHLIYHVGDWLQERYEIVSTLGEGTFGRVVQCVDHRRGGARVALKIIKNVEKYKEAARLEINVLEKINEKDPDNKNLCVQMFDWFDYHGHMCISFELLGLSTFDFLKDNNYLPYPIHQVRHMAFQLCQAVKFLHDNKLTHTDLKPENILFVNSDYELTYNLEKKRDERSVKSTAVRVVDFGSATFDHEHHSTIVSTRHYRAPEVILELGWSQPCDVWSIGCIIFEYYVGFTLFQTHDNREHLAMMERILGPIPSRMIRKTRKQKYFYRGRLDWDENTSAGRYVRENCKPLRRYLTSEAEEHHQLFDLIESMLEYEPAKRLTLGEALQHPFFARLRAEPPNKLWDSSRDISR

[7] = biological target: Dual specificity mitogen-activated protein kinase kinase 1 (Homo sapiens, UniProt Q02750); assay: Selectivity interaction (ActivX KiNativ screen (kinase selectivity in THP-1 cell lysates)) EUB0000639a MAP2K1; format: subcellular; details: lysate, at 0.2 µM
Chain of Dual specificity mitogen-activated protein kinase kinase 1 (Q02750 whole entry): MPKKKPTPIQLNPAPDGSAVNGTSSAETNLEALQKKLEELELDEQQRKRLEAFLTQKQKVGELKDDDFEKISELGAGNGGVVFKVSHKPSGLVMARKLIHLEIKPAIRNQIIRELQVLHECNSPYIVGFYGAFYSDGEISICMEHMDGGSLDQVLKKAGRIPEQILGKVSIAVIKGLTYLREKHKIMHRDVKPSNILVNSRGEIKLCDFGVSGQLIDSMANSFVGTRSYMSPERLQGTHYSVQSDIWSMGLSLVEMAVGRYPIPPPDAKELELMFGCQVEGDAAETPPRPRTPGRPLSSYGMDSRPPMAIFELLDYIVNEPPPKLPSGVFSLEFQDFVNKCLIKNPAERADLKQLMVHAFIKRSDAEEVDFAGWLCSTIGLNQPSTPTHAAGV

[8] = biological target: SRSF protein kinase 2 (Homo sapiens) (UniProt P78362); assay: Selectivity interaction (KinomeScan (DiscoverX)) EUB0000229b SRPK2; details: at 10 µM
Chain of SRSF protein kinase 2 (Homo sapiens) (P78362 whole entry, looked up): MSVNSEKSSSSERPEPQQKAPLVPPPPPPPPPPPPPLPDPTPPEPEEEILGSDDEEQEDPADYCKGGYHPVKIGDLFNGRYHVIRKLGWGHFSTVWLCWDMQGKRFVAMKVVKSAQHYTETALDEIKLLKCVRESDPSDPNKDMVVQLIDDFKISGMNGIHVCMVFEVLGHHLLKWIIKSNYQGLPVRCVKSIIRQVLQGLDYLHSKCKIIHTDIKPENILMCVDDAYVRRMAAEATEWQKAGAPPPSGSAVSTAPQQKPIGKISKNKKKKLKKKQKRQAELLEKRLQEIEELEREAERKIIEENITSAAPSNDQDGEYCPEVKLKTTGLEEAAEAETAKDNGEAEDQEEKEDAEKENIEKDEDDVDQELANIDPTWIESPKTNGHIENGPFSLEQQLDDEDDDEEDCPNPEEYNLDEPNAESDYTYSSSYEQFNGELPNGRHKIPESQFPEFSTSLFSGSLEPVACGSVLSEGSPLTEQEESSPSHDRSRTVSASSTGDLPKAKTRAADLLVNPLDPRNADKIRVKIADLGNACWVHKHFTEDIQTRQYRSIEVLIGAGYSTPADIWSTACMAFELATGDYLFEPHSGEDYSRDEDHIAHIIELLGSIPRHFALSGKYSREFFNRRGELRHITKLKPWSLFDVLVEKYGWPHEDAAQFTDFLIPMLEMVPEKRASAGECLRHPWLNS

[9] = biological target: Maternal embryonic leucine zipper kinase (Homo sapiens) (UniProt Q14680); assay: Selectivity interaction (ProQinase) EUB0000171b MELK
Chain of Maternal embryonic leucine zipper kinase (Homo sapiens) (Q14680 whole entry, looked up): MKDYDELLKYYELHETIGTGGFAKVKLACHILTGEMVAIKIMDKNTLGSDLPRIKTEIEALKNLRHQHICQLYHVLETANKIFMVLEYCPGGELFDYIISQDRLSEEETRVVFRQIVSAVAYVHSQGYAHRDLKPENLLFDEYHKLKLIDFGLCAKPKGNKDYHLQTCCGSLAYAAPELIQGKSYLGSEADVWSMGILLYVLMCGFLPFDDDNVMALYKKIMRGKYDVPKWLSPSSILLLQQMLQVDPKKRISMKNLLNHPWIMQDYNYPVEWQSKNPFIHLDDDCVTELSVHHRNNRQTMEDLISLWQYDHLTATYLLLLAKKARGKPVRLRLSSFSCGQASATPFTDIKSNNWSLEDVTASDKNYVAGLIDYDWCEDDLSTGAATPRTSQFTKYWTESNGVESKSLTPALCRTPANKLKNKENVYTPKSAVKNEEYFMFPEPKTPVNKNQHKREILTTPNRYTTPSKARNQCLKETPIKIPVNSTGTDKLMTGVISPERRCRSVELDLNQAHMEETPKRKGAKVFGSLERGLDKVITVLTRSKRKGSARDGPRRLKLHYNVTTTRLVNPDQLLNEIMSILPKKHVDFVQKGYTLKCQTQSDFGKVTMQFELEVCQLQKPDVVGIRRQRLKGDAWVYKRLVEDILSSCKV

[10] = biological target: T3, Cyclin-dependent kinase-like 5 (Homo sapiens) (UniProt O76039); assay: Selectivity interaction (KinomeScan (DiscoverX)) EUB0000666a CDKL5; details: at 10 µM
T3 sequence (whole entry): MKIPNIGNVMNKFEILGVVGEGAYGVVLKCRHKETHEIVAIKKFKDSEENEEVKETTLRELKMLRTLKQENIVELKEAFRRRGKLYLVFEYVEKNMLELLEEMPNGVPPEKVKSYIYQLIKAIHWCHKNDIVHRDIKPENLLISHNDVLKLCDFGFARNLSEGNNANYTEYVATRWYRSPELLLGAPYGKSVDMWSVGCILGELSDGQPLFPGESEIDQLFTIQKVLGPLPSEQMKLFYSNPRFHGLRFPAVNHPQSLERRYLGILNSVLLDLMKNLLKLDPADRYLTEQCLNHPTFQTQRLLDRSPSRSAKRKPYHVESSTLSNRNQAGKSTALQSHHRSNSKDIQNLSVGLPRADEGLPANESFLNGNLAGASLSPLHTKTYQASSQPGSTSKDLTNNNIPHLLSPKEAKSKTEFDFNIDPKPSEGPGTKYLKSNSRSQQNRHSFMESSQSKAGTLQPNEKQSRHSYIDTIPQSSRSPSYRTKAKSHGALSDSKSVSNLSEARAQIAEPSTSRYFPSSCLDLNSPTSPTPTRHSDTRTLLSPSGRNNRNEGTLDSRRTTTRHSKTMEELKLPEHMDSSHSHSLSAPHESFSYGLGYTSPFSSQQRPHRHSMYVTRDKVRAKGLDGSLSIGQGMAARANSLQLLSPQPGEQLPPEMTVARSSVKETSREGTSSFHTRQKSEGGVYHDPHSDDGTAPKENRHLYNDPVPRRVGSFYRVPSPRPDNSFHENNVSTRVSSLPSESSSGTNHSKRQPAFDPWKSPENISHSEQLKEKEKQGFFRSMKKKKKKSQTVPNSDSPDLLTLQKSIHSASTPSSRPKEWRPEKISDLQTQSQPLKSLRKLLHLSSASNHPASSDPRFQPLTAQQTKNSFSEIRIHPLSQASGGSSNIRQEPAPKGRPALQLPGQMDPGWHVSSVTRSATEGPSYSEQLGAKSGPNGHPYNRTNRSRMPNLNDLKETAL

Chain of Serine/threonine-protein kinase PAK 3 (Homo sapiens) (O75914 whole entry, looked up): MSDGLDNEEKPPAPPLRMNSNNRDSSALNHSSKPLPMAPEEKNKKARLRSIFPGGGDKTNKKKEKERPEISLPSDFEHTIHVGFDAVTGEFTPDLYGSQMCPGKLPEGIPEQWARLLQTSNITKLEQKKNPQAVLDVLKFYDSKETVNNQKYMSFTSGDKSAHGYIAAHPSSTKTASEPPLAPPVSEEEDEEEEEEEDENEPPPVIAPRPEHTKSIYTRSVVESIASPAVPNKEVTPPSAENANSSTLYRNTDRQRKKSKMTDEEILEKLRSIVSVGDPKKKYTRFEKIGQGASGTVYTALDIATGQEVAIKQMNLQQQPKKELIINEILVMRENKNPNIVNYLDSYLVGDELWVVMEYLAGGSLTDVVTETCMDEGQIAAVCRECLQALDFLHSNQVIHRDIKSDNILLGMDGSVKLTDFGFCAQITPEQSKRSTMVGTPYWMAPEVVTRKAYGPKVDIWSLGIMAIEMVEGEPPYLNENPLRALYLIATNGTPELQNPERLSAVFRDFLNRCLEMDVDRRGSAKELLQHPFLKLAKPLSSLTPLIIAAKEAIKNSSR

Structure (SMILES): Nc1cnc(N2CCc3cc(S(=O)(=O)Nc4c(F)cc(Cl)cc4F)cc(N4CCCC4=O)c32)nc1 [TP-020n]
% of control [1]: 100%

Structure (SMILES): O[C@H]1CC[C@H](Nc2ncc3nc(Nc4c(F)cc(F)cc4F)n([C@H]4CCOC4)c3n2)CC1
% of control [2]: 70%

Structure (SMILES): CNC(=O)Nc1ccc(-c2nc(N3CC4CCC(C3)O4)c3cnn(C4CCC5(CC4)OCCO5)c3n2)cc1
% of inhibition [3]: 1% | % of control [4]: 90%

% of inhibition [5]: -13%
Structure (SMILES): Cc1ccc(-c2ccc3c(ccc4sc5c(c43)NC[C@@H](C)NC5=O)n2)cn1

Structure (SMILES): Cc1cc([C@@H](C)Nc2ccccc2C(=O)O)c2nc(N3CCOCC3)cc(=O)n2c1 [AZD-6482]
% of control [6]: 70%

% of inhibition [7]: 3.9%
Structure (SMILES): CC[C@@H]1[C@H](F)C(=O)N[C@@H]1COc1nccc2cc(C(N)=O)c(OC)cc12 [ZIMLOVISERTIB]

Structure (SMILES): COc1cc(N(C)c2ccnc3ccc(C(F)(F)F)cc23)cc(OC)c1OC
% binding [8]: 94%

% of control ([9]; at 1 µM): 95% | % of control ([9]; at 5 µM): 70%
Structure (SMILES): C=CC(=O)Nc1cccc(C(=O)Nc2ccc(Nc3cc(-c4[nH]c(SC)nc4C)ccn3)cc2)c1

Structure (SMILES): O=C(NOC[C@H](O)CO)c1ccc(F)c(F)c1Nc1ccc(I)cc1F
% of control [10]: 67%
